The record followed here is patent US5281605A, “Novel xanthine derivatives” (Sandoz Ltd., priority 1986, dated 1994).

The structures appear in SMILES notation. Where two headings read alike, the source gives them in different places.

Experiment [1] in a line: Level of activity of R- versus S-isomers in animal models. The experiment is classed as in vivo. The following applies: R-isomers of examples 22 and 24 compared with S-isomers of examples 23 and 25 respectively.
Experiment [2] concerns Isolated guineα-pig trachea. In words: Bronchospasmolytic activity in vitro: isolated guinea-pig trachea (A.1.1). The conditions noted are these: Cavia porcellus. On the procedure:
1.1. Isolated guineα-pig trachea:
(§1) The trachea is excised from freshly sacrificed guineα-pigs and transected in the transverse plane to give rings of tissue of ca. 2 mm. Individual rings are mounted vertically on stainless steel supports, one of which is fixed at the base of an organ bath, the other being attached to a tension transducer. The rings are bathed in modified Tyrode solution at 37° C. and gassed with O2 /CO2 (95:5, v/v). Rings prepared in this manner, preloaded with 1 g, generate spontaneous tone and, after a period of equilibration, relax on addition of spasmolytic drugs. Tension can be enhanced by addition of carbachol (10^-6 M) or histamine (10^-4 M). To ascertain spasmolytic activity, test substances are dissolved in physiological saline and added in increasing quantities to the organ bath at 5 min. intervals to provide a cumulative concentration-effect curve.

Experiment [3] has as its system bombesin-induced bronchospasm. As to the kind of experiment: Bronchodilator activity in vivo: inhibition of bombesin-induced bronchospasm (A.2.1). The conditions noted are these: Cavia porcellus, iv; anaesthetised guinea pigs; i.v. at the height of bombesin-induced bronchospasm; read-out: ED50, reversal of bombesin-induced bronchospasm. Here is the method: 2.1. Inhibition of bronchospasm:
Guinea pigs are anaesthetised with pentobarbital (30 mg/kg i.p.) and phenobarbital (100 mg/kg i.p.) and ventilated via a tracheal cannula (10 ml/kg, 1 Hz). Ventilation is monitored either by a pressure transducer measuring air-flow (Konzett-Rossler method), or by a Fleisch flow transducer in line with the inspiratory circuit. When making measurements of flow, coincident pressure changes in the thorax are monitored directly via an intrathoracic trochar, permitting display of differential pressure relative to the trachea. From this information resistance and compliance are calculated at each inspiration.
Intravenous injection of bombesin (ca. […]) as a bolus, induces increased airways resistance Wilich is sustained over a period of several minutes. Capacity of test-substance to reverse response when administered i.v. at the height of bombesin-induced bronchospasm serves as a measure of efficacy in reversing established bronchospasm.

The subject of a further experiment is Isolated human bronchus. As to the kind of experiment: Bronchospasmolytic activity in vitro: isolated human bronchus (A.1.2). The following applies: read-out: EC50, relaxation of human bronchus rings. On the procedure: as §1
1.2. Isolated human bronchus:
Rings of bronchus (ca. 2 mm depth) are dissected from samples of human lung, resected from patients with lung carcinoma but grossly free of disease. Activity is determined employing the methodology of example A.1.1.

With `COCCn1c(N[C@@H](COC)c2ccc(OC)c(OC)c2)nc2c1c(=O)n(C)c(=O)n2C` [Example 24], the “level of activity in animal models” value in experiment [1] is on record as “higher level of activity”.

Turning to `COCCn1c(N[C@@H](CO)c2ccc(OC)c(OC)c2)nc2c1c(=O)n(C)c(=O)n2C` [Example 22], the EC50 – broadly, the concentration needed to bring the measured effect to its halfway point – in experiment [2] (basal tone, read-out: EC50, relaxation of tracheal rings, basal tone) stood at 860 nM; in experiment [2] (in the presence of carbachol (10^-6 M), read-out: EC50, relaxation of tracheal rings, carbachol) it was 19000 nM; in experiment [2] (in the presence of histamine (10^-4 M), read-out: EC50, relaxation of tracheal rings, histamine) it was 170 nM. For the same molecule, the ED50 (usually the dose that gives a 50% effect, or the effect in half of the subjects) in experiment [3] was 0.03 to 0.09 mg/kg. In addition, in experiment [1], the “level of activity in animal models” value is reported as “higher level of activity”.

As to `COCCn1c(NC(CO)c2ccc(OC)c(OC)c2)nc2c1c(=O)n(C)c(=O)n2C` (stereo not shown) [Example 7], the EC50 with Isolated human bronchus came out at 1200 nM.
